The source of these data is patent US20250129067A1 (Progentos Therapeutics, Inc., priority 2021, published 2025).

Like-named read-outs stand apart in the source and are kept apart here. Some results are limits rather than exact numbers.

In data set [1] the target is PDGFRα (Homo sapiens (Human), UniProt P16234). As to the kind of experiment: PDGFRα kinase enzyme assay (Promega PDGFRα Kinase Enzyme System, ADP-Glo). In kind it is biochemical. Particulars: 150 uM ATP. In outline: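 Read-out was ADP-Glo: remaining ATP depleted, ADP converted to luminescence and compared with a standard curve.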
Background: In ADP-Glo the light output rises with the ADP produced.

Data set [2] relates to GPR17+ cells (newly differentiated oligodendrocytes). Description: In vivo OPC differentiation, GPR17+ cells in brain. Conditions: for In vivo GPR17+ cells, GPR17 Fold Induction (Over Vehicle): adult female C57BL/6 mice, PO or IP, treatment period 1-3 days, entire brain, fold change over vehicle treated animals.
The subject of data set [3] is Oligodendrocyte progenitor cells (OPCs). Description: In vitro OPC differentiation assay, GPR17 expression (immunocytochemistry). Particulars: 72 hours; for GPR17 Fold Induction (Over Vehicle; 3 μM): 3 μM (10× concentration, final 0.3 μM), fold change over vehicle; for GPR17 Fold Induction (Over Vehicle; 5 μM): primary rat OPCs, 5 μM (10x; final 0.5 μM per method), percent GPR17+ cells as fold change over vehicle.

Where [4] appears, read: 11-point dose response, 10,000 nM to 0.169 nM, BLQ = below limit of quantitation, read-out: IC50 Values on PDGFRα Kinase Inhibition, IC50.
[5] abbreviates: Mus musculus, po, 24 h, read-out: GPR17 Fold Induction (Over Vehicle).
[6] abbreviates: 11-point dose response, 10,000 nM to 0.169 nM, BLQ = below limit of quantitation.
[7] abbreviates: 20 ng purified PDGFRα, Poly (Glu4Tyr1) substrate, two hours, 11-point dose response, read-out: IC50 Values on PDGFRα Kinase Inhibition.

Chain of PDGFRα (P16234 24-1089): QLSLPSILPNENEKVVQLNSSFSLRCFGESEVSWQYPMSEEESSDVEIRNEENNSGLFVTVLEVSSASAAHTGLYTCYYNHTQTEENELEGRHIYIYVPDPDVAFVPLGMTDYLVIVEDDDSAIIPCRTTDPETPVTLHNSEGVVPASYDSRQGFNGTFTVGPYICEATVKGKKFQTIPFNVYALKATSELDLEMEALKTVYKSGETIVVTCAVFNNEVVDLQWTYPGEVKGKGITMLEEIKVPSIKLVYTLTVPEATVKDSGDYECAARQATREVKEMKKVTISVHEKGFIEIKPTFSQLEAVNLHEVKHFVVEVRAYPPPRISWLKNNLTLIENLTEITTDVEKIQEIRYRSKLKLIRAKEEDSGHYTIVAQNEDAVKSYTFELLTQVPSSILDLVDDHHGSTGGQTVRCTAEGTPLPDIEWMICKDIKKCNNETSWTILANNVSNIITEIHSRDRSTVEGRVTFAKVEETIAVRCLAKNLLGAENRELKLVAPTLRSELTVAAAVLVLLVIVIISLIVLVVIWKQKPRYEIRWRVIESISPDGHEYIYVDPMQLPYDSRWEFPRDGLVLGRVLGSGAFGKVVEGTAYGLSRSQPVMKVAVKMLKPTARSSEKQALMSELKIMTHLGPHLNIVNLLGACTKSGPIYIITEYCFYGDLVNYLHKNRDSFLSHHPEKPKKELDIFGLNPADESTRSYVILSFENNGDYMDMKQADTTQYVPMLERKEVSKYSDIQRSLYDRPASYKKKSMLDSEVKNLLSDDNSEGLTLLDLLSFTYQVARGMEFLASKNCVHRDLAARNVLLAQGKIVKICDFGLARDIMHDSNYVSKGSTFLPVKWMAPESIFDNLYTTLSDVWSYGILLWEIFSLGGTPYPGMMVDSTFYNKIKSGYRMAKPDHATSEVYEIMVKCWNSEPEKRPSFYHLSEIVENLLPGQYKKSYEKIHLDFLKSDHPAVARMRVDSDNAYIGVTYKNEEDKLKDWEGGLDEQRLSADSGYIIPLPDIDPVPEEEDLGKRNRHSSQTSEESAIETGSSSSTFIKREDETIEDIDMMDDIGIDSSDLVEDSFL

In the case of `Cn1cc(-c2ccc3c(N4CCN(C(=O)NCc5ccccc5)CC4)cnn3c2)cn1` [Compound 161, N-benzyl-4-(6-(1-methyl-1H-pyrazol-4-yl)pyrazolo[1,5-a]pyridin-3-yl)piperazine-1-carboxamide], the IC50 in data set [1] (setting [4]) came to 2110 nM. In addition, the fold induction at 3 mg/kg in data set [2] (setting [5]) came out at 1.81. Further, the “GPR17 Fold Induction (Over Vehicle; 3 μM)” value in data set [3] is on record as 3.97.

On to `Cn1cc(-c2ccc3c(N4CCN(c5ncc(Cc6ccco6)cn5)CC4)cnn3c2)cn1` [Compound 181, 3-(4-(5-(furan-2-ylmethyl)pyrimidin-2-yl)piperazin-1-yl)-6-(1-methyl-1H-pyrazol-4-yl)pyrazolo[1,5-a]pyridine], for which the IC50 in data set [1] (setting [4]) turned out to be 1860 nM. In addition, the fold induction at 3 mg/kg in data set [2] (setting [5]) came to 1. The “GPR17 Fold Induction (Over Vehicle; 3 μM)” value in data set [3] was 4.87.

In the case of `Cn1cc(-c2ccc3c(N4CCN(c5ncc(CC6CCCCO6)cn5)CC4)cnn3c2)cn1` (stereo not drawn) [Compound 184, 6-(1-methyl-1H-pyrazol-4-yl)-3-(4-(5-((tetrahydro-2H-pyran-2-yl)methyl)pyrimidin-2-yl)piperazin-1-yl)pyrazolo[1,5-a]pyridine], the IC50 in data set [1] (setting [4]) was found to be 126 nM. Also, the fold induction at 3 mg/kg in data set [2] (setting [5]) was 1.07. In addition, the “GPR17 Fold Induction (Over Vehicle; 3 μM)” value in data set [3] was 9.26.

As to `Cn1cc(-c2ccc3c(N4CCN(c5ncc([S+]([O-])c6ccccc6)cn5)CC4)cnn3c2)cn1` (stereo not drawn) [Compound 187, 6-(1-methyl-1H-pyrazol-4-yl)-3-(4-(5-(phenylsulfinyl)pyrimidin-2-yl)piperazin-1-yl)pyrazolo[1,5-a]pyridine], in data set [1] (setting [4]), the IC50 worked out at 153 nM. Also, in data set [2] (setting [5]), the fold induction at 3 mg/kg turned out to be 1.32. The “GPR17 Fold Induction (Over Vehicle; 3 μM)” value in data set [3] worked out at 4.97.

Take `CC(C)(C)OC(=O)N1CCN(c2cnn3cc(-c4cccnc4)ccc23)CC1` [Compound 217, tert-butyl 4-(6-(pyridin-3-yl)pyrazolo[1,5-a]pyridin-3-yl)piperazine-1-carboxylate]: in data set [1] (setting [4]), the IC50 is 594 nM. Further, the fold induction at 3 mg/kg in data set [2] (setting [5]) was 0.97. Further, the “GPR17 Fold Induction (Over Vehicle; 3 μM)” value in data set [3] was 1.69.

As for `CC1CN(c2cnn3cc(-c4cnn(C)c4)ccc23)CCN1C(=O)OC(C)(C)C` (stereo not drawn) [Compound 238, tert-butyl-2-methyl-4-(6-(1-methyl-1H-pyrazol-4-yl)pyrazolo[1,5-a]pyridin-3-yl)piperazine-1-carboxylate], in data set [1] (setting [4]), the IC50 stood at 430 nM. In addition, the fold induction at 3 mg/kg in data set [2] (setting [5]) was 1.54. Further, in data set [3], the “GPR17 Fold Induction (Over Vehicle; 3 μM)” value was 6.34.

On to `Cn1cc(-c2ccc3c(N4CCN(c5ccc(C(O)c6ccccc6)nc5)CC4)cnn3c2)cn1` (stereo not drawn) [Compound 241, (5-(4-(6-(1-methyl-1H-pyrazol-4-yl)pyrazolo[1,5-a]pyridin-3-yl)piperazin-1-yl)pyridin-2-yl)(phenyl)methanol], for which the IC50 in data set [1] (setting [4]) is 974 nM. Further, the fold induction at 3 mg/kg in data set [2] (setting [5]) turned out to be 6.43. Besides, the “GPR17 Fold Induction (Over Vehicle; 3 μM)” value in data set [3] is listed as 16.27.

In the case of `Cn1cc(-c2ccc3c(N4CCN(c5ncc(Cc6ccccc6)o5)CC4)cnn3c2)cn1` [Compound 247, 5-benzyl-2-(4-(6-(1-methyl-1H-pyrazol-4-yl)pyrazolo[1,5-a]pyridin-3-yl)piperazin-1-yl)oxazole], the IC50 in data set [1] (setting [4]) stood at 1780 nM. Further, the fold induction at 30 mg/kg in data set [2] (setting [5]) is 8.43. Besides, the “GPR17 Fold Induction (Over Vehicle; 3 μM)” value in data set [3] was determined as 2.45.

`Cn1cc(-c2ccc3c(N4CCN(c5ncc(Cc6ccccn6)cn5)CC4)cnn3c2)cn1` [Compound 250, 6-(1-methyl-1H-pyrazol-4-yl)-3-{4-[5-(pyridine-2-ylmethyl)pyrimidin-2-yl]piperazin-1-yl}pyrazolo[1,5-a]pyridine]: the IC50 in data set [1] (setting [4]) came to 80.4 nM. Besides, the fold induction at 3 mg/kg in data set [2] (setting [5]) was 6.19. The “GPR17 Fold Induction (Over Vehicle; 3 μM)” value in data set [3] is on record as 9.74.

Take `Cn1cc(-c2ccc3c(N4CCN(c5ncc(C(CO)c6ccc(F)cc6)cn5)CC4)cnn3c2)cn1` (stereo not drawn) [Compound 257, 2-(4-fluorophenyl)-2-(2-(4-(6-(1-methyl-1H-pyrazol-4-yl)pyrazolo[1,5-a]pyridin-3-yl)piperazin-1-yl)pyrimidin-5-yl)ethan-1-ol]: in data set [1] (setting [4]), the IC50 worked out at 79.8 nM. In data set [2] (setting [5]), the fold induction at 3 mg/kg amounted to 2.32. Further, the “GPR17 Fold Induction (Over Vehicle; 3 μM)” value in data set [3] worked out at 10.85.

As for `Cc1ccc(C(C)OC(=O)N2CCN(c3cnn4cc(-c5cnn(C)c5)ccc34)CC2)nc1` (stereo not drawn) [Compound 261, 1-(5-methylpyridin-2-yl)ethyl 4-[6-(1-methyl-1H-pyrazol-4-yl)pyrazolo[1,5-a]pyridin-3-yl]piperazine-1-carboxylate], in data set [1] (setting [4]), the 50% inhibitory concentration (IC50) was found to be 17.1 nM. The fold induction at 3 mg/kg in data set [2] (setting [5]) is 3.71. In addition, the “GPR17 Fold Induction (Over Vehicle; 3 μM)” value in data set [3] came to 5.04.

Regarding `C[C@@H](OC(=O)N1CCN(c2cnn3cc(-c4cnn(C)c4)ccc23)CC1)c1ccc(OC(F)(F)F)cc1` [Compound 268, (1R)-1-[4-(trifluoromethoxy)phenyl]ethyl 4-[6-(1-methyl-1H-pyrazol-4-yl)pyrazolo[1,5-a]pyridin-3-yl]piperazine-1-carboxylate], the IC50 in data set [1] (setting [4]) stood at 11.8 nM. Also, the fold induction at 3 mg/kg in data set [2] (setting [5]) was determined as 7.02. Besides, in data set [3], the “GPR17 Fold Induction (Over Vehicle; 3 μM)” value is listed as 5.57.

Turning to `C[C@@H](OC(=O)N1CCN(c2cnn3cc(-c4cnn(C)c4)ccc23)CC1)c1ccc(Cl)cc1Cl` [Compound 270, (1R)-1-(2,4-dichlorophenyl)ethyl 4-[6-(1-methyl-1H-pyrazol-4-yl)pyrazolo[1,5-a]pyridin-3-yl]piperazine-1-carboxylate], the IC50 in data set [1] (setting [4]) came to 158 nM. Also, the fold induction at 3 mg/kg in data set [2] (setting [5]) worked out at 1.92. In addition, the “GPR17 Fold Induction (Over Vehicle; 3 μM)” value in data set [3] is on record as 7.71.

Consider `CC(OC(=O)N1CCN(c2cnn3cc(-c4cnn(C)c4)ccc23)CC1)c1ccc(C(F)(F)F)c(F)c1` (stereo not drawn) [Compound 273, 1-(3-fluoro-4-(trifluoromethyl)phenyl)ethyl 4-(6-(1-methyl-1H-pyrazol-4-yl)pyrazolo[1,5-a]pyridin-3-yl)piperazine-1-carboxylate], for which, in data set [1] (setting [4]), the IC50 was 13 nM. Moreover, the fold induction at 3 mg/kg in data set [2] (setting [5]) was determined as 3.78. In data set [3], the “GPR17 Fold Induction (Over Vehicle; 3 μM)” value is 9.05.

Take `Cn1cc(-c2ccc3c(N4CCN(C(=O)NCc5ccc(C(F)(F)F)cc5)CC4)cnn3c2)cn1` [Compound 279, 4-[6-(1-methyl-1H-pyrazol-4-yl)pyrazolo[1,5-a]pyridin-3-yl]-N-[4-(trifluoromethyl)benzyl]piperazine-1-carboxamide]: in data set [1] (setting [4]), the IC50 is 58.9 nM. Further, the fold induction at 3 mg/kg in data set [2] (setting [5]) was 6.33. The “GPR17 Fold Induction (Over Vehicle; 3 μM)” value in data set [3] is 3.62.

Turning to `C[C@@H](OC(=O)N1CCN(c2cnc3cc(-c4cnn(C)c4)cnn23)CC1)c1ccc(Cl)cc1` [Compound 282, (R)-1-(4-chlorophenyl)ethyl 4-(7-(1-methyl-1H-pyrazol-4-yl)imidazo[1,2-b]pyridazin-3-yl)piperazine-1-carboxylate], the “IC50 Values on PDGFRα Kinase Inhibition, IC50 (nM)” value in data set [1] (setting [6]) is listed as “BLQ”. In addition, the fold induction at 3 mg/kg in data set [2] (setting [5]) came to 4.02. For the same compound, the “GPR17 Fold Induction (Over Vehicle; 3 μM)” value in data set [3] turned out to be 6.40.

As to `C[C@@H](OC(=O)N1CCN(c2cnc3cc(-c4cnn(C)c4)cnn23)CC1)c1ccc(C(F)(F)F)cc1` [Compound 283, (R)-1-(4-(trifluoromethyl)phenyl)ethyl 4-(7-(1-methyl-1H-pyrazol-4-yl)imidazo[1,2-b]pyridazin-3-yl)piperazine-1-carboxylate], the “IC50 Values on PDGFRα Kinase Inhibition, IC50 (nM)” value in data set [1] (setting [6]) is on record as “BLQ”. Moreover, the fold induction at 3 mg/kg in data set [2] (setting [5]) was 6.8. Moreover, the “GPR17 Fold Induction (Over Vehicle; 3 μM)” value in data set [3] was found to be 5.90.

Consider `[2H]c1c([2H])c(C(OC(=O)N2CCN(c3cnn4cc(-c5cnn(C)c5)ccc34)CC2)C([2H])([2H])[2H])c([2H])c([2H])c1Cl` (stereo not drawn) [Compound 291, 1-(4-chlorophenyl-2,3,5,6-d4) ethyl-2,2,2-d3 4-(6-(1-methyl-1H-pyrazol-4-yl)pyrazolo[1,5-a]pyridin-3-yl)piperazine-1-carboxylate], for which the IC50 in data set [1] (setting [4]) was 0.016 nM. Moreover, in data set [2] (setting [5]), the fold induction at 3 mg/kg came out at 6.93. The “GPR17 Fold Induction (Over Vehicle; 3 μM)” value in data set [3] was 6.24.

On to `C[C@@H](OC(=O)N1CCN(c2cnn3cc(-c4cnn(C)c4)ccc23)CC1)c1cccnc1` [Compound 315, (1R)-1-pyridin-3-ylethyl 4-[6-(1-methyl-1H-pyrazol-4-yl)pyrazolo[1,5-a]pyridin-3-yl]piperazine-1-carboxylate], for which the IC50 in data set [1] (setting [4]) was 547 nM. In addition, in data set [2] (setting [5]), the fold induction at 3 mg/kg came to 1.05. Also, the “GPR17 Fold Induction (Over Vehicle; 3 μM)” value in data set [3] amounted to 4.27.

As to `Cc1ccc(C(C)OC(=O)N2CCN(c3cnn4cc(-c5cnn(C)c5)ccc34)CC2)cn1` (stereo not drawn) [Compound 317, 1-(6-methylpyridin-3-yl)ethyl 4-[6-(1-methyl-1H-pyrazol-4-yl)pyrazolo[1,5-a]pyridin-3-yl]piperazine-1-carboxylate], the IC50 in data set [1] (setting [4]) amounted to 17.3 nM. Further, in data set [2] (setting [5]), the fold induction at 3 mg/kg came to 2.97. In addition, the “GPR17 Fold Induction (Over Vehicle; 3 μM)” value in data set [3] came out at 12.64.

With `COc1cc2c(cc1OC)-c1[nH]nc(Nc3cccc(F)c3)c1C2` [JNJ-10198409, JNJ=10198409, reference compound], the IC50 in data set [1] (setting [7]) was greater than 10000 nM. Further, the “In vivo GPR17+ cells, GPR17 Fold Induction (Over Vehicle)” value in data set [2] was determined as 1.16. Further, the “GPR17 Fold Induction (Over Vehicle; 5 μM)” value in data set [3] was 3.87.

Turning to `CN1CCN(c2ccc(Nc3ncc4cc(C#N)c(=O)n(C5CCCC5)c4n3)cc2)CC1` [ON123300, reference compound], the IC50 in data set [1] (setting [7]) is 73.5 nM. Besides, in data set [2], the “In vivo GPR17+ cells, GPR17 Fold Induction (Over Vehicle)” value came to 1.49. In addition, the “GPR17 Fold Induction (Over Vehicle; 5 μM)” value in data set [3] amounted to 6.72.

The IC50 is the concentration that inhibits the measured activity by half.
